Source: paper PMC7180484 (Molecules, 2020)

How the values were obtained:
MAO-B = biological target: T1, MAO-B (Homo sapiens, UniProt P27338); assay: MAO-B inhibition assay (Biovision fluorometric kit); assay type: biochemical
T1 construct: purchased Biovision
T1 sequence (P27338 1-520): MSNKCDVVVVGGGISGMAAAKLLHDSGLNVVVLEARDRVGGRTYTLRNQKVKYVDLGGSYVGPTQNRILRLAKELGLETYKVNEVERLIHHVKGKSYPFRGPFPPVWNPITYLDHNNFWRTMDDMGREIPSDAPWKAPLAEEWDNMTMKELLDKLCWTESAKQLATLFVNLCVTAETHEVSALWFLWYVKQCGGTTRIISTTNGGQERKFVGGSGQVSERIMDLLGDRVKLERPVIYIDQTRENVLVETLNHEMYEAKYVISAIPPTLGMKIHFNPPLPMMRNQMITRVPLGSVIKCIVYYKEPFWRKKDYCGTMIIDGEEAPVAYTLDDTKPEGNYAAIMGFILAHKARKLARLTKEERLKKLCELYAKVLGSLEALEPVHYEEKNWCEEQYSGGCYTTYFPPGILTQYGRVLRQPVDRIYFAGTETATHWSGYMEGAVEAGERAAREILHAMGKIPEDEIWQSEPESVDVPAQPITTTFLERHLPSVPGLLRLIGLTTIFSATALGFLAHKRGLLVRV
Procedure: MAO-B (EC 1.4.3.4) activity inhibition was assayed using Biovision inhibition screening kit (fluorometric). With all reaction components at room temperature, 0.2 U enzyme was pre-incubated with compounds under study and incubated for 10 min. Working substrate was prepared fresh by adding developer and oxired probe with assay buffer according to kit instructions. Substrate was added to the reaction and incubated for 10 min; zero-minute fluorescence was recorded (Ex 535 nm, Em 587 nm) to serve as control for relative fluorescence inhibition calculation.

AChE = biological target: T2, AChE (Electrophorus electricus, UniProt O42275); assay: biochemical; settings: for SI (selectivity index): AChE selectivity over BuChE, IC50 BuChE/IC50 AChE; for IC50: mean ± SD, three replicate determinations
T2 construct: acetylcholinesterase from electric eel; purchased Sigma Aldrich, India
Description: (§1) MAO-B inhibition kit by Biovision. BACE-1 activity assay kit by Sigma Aldrich. […] PC12 (rat pheochromocytoma) cell line was obtained from NCCS, Pune, India. All other reagents used were of analytical grade. All preparations used in tissue culture experiments were filtered through 0.45 µm Axiva 25 mm CA filter. Ethical approval was obtained from GGS Indrapratha University for all the cell culture work done in proper confined facilities.
(§2) Five microliters of enzyme (AChE and BuChE) solution at 0.03 U/mL final assay concentration; 200 μL of phosphate buffer (pH 8); 5 μL of DTNB (0.3 mM); and 5 μL of test compounds were pre-incubated for 15 min at RT. The reaction was initiated by adding 5 μL of substrate (ATChI and BuTChI) at a final concentration of 0.5 mM. The control for relative absorbance consisted of the buffer in place of the test compounds and the enzyme and substrate blank were devoid of enzyme and the substrate, respectively.

BuChE = biological target: T3, BuChE (Equus caballus, UniProt P81908); assay: biochemical; settings: mean ± SD, three replicate determinations
T3 construct: butyrylcholinesterase from equine serum; purchased Sigma Aldrich, India; host or cells: equine serum
Description: as §1, §2

Aβ42 [1] = biological target: T4, Aβ42 (Homo sapiens, UniProt P05067); assay: Circular dichroism spectroscopy of Aβ42 secondary structure (BeStSel); assay type: biochemical; design: Aβ42—Amyloid beta 1-42 residues; purchased Link biotech (named in a list that ends 'purchased from Sigma Aldrich, India'); settings: for Secondary structure content: Others / Secondary structure content: α-helix / Secondary structure content: Turn / Secondary structure content: β-sheet (parallel) / Secondary structure content: β-sheet (antiparallel): Aβ42 22 μM + compound 22 μM, BeStSel from CD spectra; for Secondary structure content: Others / Secondary structure content: α-helix: Aβ42 control 0.0; for Secondary structure content: Turn: Aβ42 control 8.6; for Secondary structure content: β-sheet (parallel): Aβ42 control 16.5; for Secondary structure content: β-sheet (antiparallel): Aβ42 control 74.9; for inhibition in β-sheet formation: compared to control (Aβ42 only), CD, 48 h incubation
Procedure: Secondary structure of Aβ42 peptides were recorded as far UV circular dichroism spectra using Chirascan (Applied PhotoPhysics, New Delhi, India) instrument and software. 22 μM Aβ42 samples (22 μM Aβ42 alone and Aβ42 with RES and AJM) were mixed well ensuring a homogenous suspension and transferred to quartz cell for CD spectra scanning. CD spectra was recorded from 200–260 nm at RT using a bandwidth of 1.0 nm, times per point 0.5 sec, a step interval of 1 nm, and 10 mm path length. Five scans of each sample were measured and averaged. Averaged control buffer scans were subtracted from the sample spectra. The results of CD measurement were plotted as graph between measured ellipticity (millidegree) and wavelength (nm). The secondary structure contents (α-helix, β-sheet, turn, and random coil) of the Aβ42 peptide samples were estimated from the CD spectra using the CD Pro software. Relative percentage of reduced β-sheet content in Aβ42 samples treated with RES and AJM was calculated using BeStSel software.

PC12 cells [2] = assay: Neuroprotection against H2O2 induced oxidative stress cytotoxicity in PC12 cells (MTT assay); assay type: cell-based, rat; settings: compound 40 μM; H2O2 200 µM; negative control 31% viability
Procedure: Cell viability was determined through trypan blue dye exclusion assay and cells were seeded to 96 well tissue culture plate at a 5 × 10^5 cells/well concentration. Pre-incubation with compounds were given to PC12 cells prior to inducing H2O2 cytotoxicity for 18 h. MTT was added to the well at 5 mg/mL concentration and incubated in the dark for enzymatic reaction by live cells for 2 h. DMSO was added to well to dissolve formazan crystals and absorbance was recorded at 570 nm. PC12 cells relative survival was calculated compared to control (PC12 cells only).

PC12 cells [3] = assay: Aβ42 induced neurotoxicity in PC12 cells (MTT assay); settings: 24 h
Procedure: Cells were seeded in 96 well plate in log phase of growth at concentration 5 × 10^5 cells per well. […] MTT solution was added to the wells and incubated in dark, for the live cells to convert the tetrazolium salt in purple formazan crystals. The formazan crystals were dissolved using DMSO and absorbance was measured at 570 nm. Relative survival percentage of PC12 cells was calculated compared to control (PC12 cells only). All measurements were performed in triplicates and all experiments were repeated thrice individually.

Aβ42 [4] = biological target: T4, Aβ42; assay: ThT fluorescence assay of Aβ42 fibril formation (anti-aggregation); assay type: biochemical; design: Aβ42—Amyloid beta 1-42 residues; purchased Link biotech (named in a list that ends 'purchased from Sigma Aldrich, India'); settings: vs control (Aβ42 only), 48 h; for inhibition of Aβ42 aggregation (ThT fluorescence): at 44 μM
Procedure: Aβ42 samples were incubated with or without compounds at different concentrations, after 48 h of fibril formation samples from each experimental set were withdrawn and mixed with ThT in opaque micro titer plate. The reactions were then incubated in dark at 37 °C for 30 min for ThT probe to bind the formed amyloid fibrils. The ThT was excited at 450 nm and spectra were recorded from 400 to 650 nm.

BACE-1 = biological target: T5, BACE-1 (Homo sapiens, UniProt P56817); assay: In vitro BACE-1 enzyme inhibition assay (FRET kit); assay type: biochemical
T5 construct: purchased Sigma Aldrich
Procedure: BACE-1 (EC 3.4.23.46) activity inhibition was assayed using FRET (fluorescence resonance energy transfer) kit (Sigma Aldrich, New Delhi, India). With all reaction components at RT, 50 μM substrate was added to 75 μL assay buffer containing RES and AJM (25, 50, 100 μM) in the microtiter plate. Reaction was initiated by the addition of 0.03 U BACE-1 enzyme in the well and zero minute fluorescence was recorded (Ex 350 nm, Em 405 nm). After 2 h incubation in dark at 37 °C, reaction fluorescence was recorded every one hour for next three hours. Relative fluorescence inhibition was calculated from zero minute fluorescence reading as control. Three individual experiments were performed.

Aβ42 [5] = biological target: T4, Aβ42; assay: Congo red dye binding (red shift) assay with Aβ42 fibrils; settings: CR only 490 nm, Aβ42 only 530 nm
Procedure: Aβ42 alone sample was used as control. Samples were incubated at 37 °C at 260 rpm for 48 h in the shaker incubator.
Congo red (200 μM) was dissolved in a 50 mM phosphate buffer (pH 7.4) consisting of 50 mM NaCl and 10% ethanol and filtered through 0.45 µm CA membrane filter. The Aβ42 concentration was fixed at 10 µM in the reaction mixture. […] The absorbance spectra (400–650 nm) of the samples were recorded with a UV-visible spectrophotometer [27]. All experiments had three technological and three biological repeats.

Aβ42 [6] = biological target: T4, Aβ42; assay: Transmission electron microscopy of Aβ42 aggregates; design: Aβ42—Amyloid beta 1-42 residues; purchased Link biotech (named in a list that ends 'purchased from Sigma Aldrich, India'); settings: Aβ42 + 44 μM compound, 37 °C, 48 h; control: abundant long, branched, dense fibrils
Procedure: 5 μL Aβ42 prepared fibril samples (22 μM) Aβ42 alone and Aβ42 with RES and AJM) were loaded on carbon stabilized, formvar coated grid for 40 sec. Ashless filter paper was used to wipe out extra sample from the edges of the grid. Loaded grid was negatively stained with 1% uranyl acetate for 20 sec and air-dried. Grid was then examined and photographed on JEOL 2100F transmission electron microscope.

T4 sequence (P05067 672-713 limits assumed): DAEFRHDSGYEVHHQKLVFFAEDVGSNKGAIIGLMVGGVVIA
T2 sequence (O42275 24-633): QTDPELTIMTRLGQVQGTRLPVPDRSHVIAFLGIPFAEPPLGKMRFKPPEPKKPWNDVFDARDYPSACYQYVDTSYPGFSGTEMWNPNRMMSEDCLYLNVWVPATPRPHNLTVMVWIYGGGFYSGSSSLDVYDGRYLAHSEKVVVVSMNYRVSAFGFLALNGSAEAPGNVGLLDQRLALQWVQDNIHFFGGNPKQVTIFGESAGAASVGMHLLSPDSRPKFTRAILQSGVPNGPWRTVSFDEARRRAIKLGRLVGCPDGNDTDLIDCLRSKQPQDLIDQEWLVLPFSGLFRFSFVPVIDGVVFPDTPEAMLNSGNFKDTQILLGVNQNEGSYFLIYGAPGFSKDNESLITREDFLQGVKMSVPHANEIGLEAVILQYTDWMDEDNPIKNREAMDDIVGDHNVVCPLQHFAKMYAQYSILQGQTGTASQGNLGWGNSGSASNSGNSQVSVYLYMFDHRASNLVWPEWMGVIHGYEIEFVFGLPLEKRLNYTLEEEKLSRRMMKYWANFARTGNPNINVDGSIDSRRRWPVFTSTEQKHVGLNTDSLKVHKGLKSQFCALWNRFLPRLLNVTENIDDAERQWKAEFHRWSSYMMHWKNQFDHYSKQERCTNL
T3 sequence (P81908 whole entry): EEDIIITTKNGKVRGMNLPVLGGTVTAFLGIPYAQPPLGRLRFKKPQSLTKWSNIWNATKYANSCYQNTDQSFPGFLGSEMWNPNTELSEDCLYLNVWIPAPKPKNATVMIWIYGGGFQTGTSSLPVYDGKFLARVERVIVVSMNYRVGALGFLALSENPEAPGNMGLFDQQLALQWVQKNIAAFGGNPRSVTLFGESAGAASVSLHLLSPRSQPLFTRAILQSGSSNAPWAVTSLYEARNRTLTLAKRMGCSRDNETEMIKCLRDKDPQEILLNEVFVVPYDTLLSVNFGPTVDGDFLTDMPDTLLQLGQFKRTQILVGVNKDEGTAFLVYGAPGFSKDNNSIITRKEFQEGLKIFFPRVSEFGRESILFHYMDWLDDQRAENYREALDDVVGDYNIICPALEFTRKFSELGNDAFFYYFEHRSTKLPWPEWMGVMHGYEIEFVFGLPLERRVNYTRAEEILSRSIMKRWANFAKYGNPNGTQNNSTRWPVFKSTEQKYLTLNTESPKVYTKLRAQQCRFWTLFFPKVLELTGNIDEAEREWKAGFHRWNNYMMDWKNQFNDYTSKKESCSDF
T5 sequence (P56817 46-501): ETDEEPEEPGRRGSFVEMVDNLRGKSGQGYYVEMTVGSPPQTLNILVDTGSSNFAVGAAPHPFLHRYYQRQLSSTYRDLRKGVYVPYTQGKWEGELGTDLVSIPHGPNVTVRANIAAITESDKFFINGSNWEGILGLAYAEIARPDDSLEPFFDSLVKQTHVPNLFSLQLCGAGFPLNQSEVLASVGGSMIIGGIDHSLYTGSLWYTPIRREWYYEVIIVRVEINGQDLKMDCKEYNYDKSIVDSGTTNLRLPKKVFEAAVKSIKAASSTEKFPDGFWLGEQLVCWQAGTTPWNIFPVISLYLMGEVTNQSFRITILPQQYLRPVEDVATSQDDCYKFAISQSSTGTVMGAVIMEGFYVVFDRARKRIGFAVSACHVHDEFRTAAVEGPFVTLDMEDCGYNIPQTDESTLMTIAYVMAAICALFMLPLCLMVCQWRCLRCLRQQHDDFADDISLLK

## COC(=O)C1=CO[C@@H](C)[C@H]2CN3CCc4c([nH]c5ccccc45)[C@@H]3C[C@H]12 [Ajmalicine]
MAO-B; at 40 μM
  MAO-B inhibition: 89%
AChE
  SI (selectivity index): 1.55
  IC50: 3.5 ± 1.41 µM
AChE; at 50 μM
  AChE inhibition: 90%
BuChE
  IC50: 5.44 ± 1.75 µM
Aβ42 [1]
  Secondary structure content: Others: 53.1%
  Secondary structure content: α-helix: 0.0%
  Secondary structure content: Turn: 11.7%
  Secondary structure content: β-sheet (parallel): 0.0%
  Secondary structure content: β-sheet (antiparallel): 35.2%
  inhibition in β-sheet formation: 53%
PC12 cells [2]
  survival of PC12 cells against H2O2 induced oxidative stress (MTT): 89%
PC12 cells [3]; compound 40 μM, Aβ42 fibrils 40 μM
  survival of PC12 cells against Aβ42 cytotoxicity (MTT): 67%
Aβ42 [4]
  inhibition of Aβ42 aggregation (ThT fluorescence): 57%
BACE-1; at 50 μM
  inhibition of BACE-1 activity: 69%
Aβ42 [5]; Aβ42 + compound 22 μM
  Congo red absorbance wavelength (red shift) with Aβ42: 510 nm
Aβ42 [5]; Aβ42 + compound 44 μM
  Congo red absorbance wavelength (red shift) with Aβ42: 510 nm
Aβ42 [6]
  morphology of Aβ42 aggregates by TEM: shorter, loose, and less Aβ42 fibrils along with small oligomers

## N[C@@H](CCC(=O)N[C@@H](CS)C(=O)NCC(=O)O)C(=O)O [glutathione]
PC12 cells [2]
  survival of PC12 cells against H2O2 induced oxidative stress (MTT): 91%

## COC(=O)[C@H]1[C@H]2C[C@@H]3c4[nH]c5cc(OC)ccc5c4CCN3C[C@H]2C[C@@H](OC(=O)c2cc(OC)c(OC)c(OC)c2)[C@@H]1OC [Reserpine]
MAO-B
  inhibition at 40 µM: 89%
AChE
  SI (selectivity index): 1.65
  IC50: 1.7 ± 2.08 µM
AChE; read-out: AChE inhibition
  inhibition at 50 µM: 96%
BuChE
  IC50: 2.8 ± 1.84 µM
Aβ42 [1]
  Secondary structure content: Others: 54.9%
  Secondary structure content: α-helix: 0.0%
  Secondary structure content: Turn: 17.8%
  Secondary structure content: β-sheet (parallel): 0.0%
  Secondary structure content: β-sheet (antiparallel): 27.3%
  inhibition in β-sheet formation: 64%
PC12 cells [2]
  survival of PC12 cells against H2O2 induced oxidative stress (MTT): 93%
PC12 cells [3]; rat, 40 μM
  survival of PC12 cells against Aβ42 cytotoxicity (MTT): 92%
Aβ42 [4]
  inhibition at 44 µM: 69%
BACE-1
  inhibition at 50 µM: 47%
Aβ42 [5]; Aβ42 + compound 22 μM
  Congo red absorbance wavelength (red shift) with Aβ42: 510 nm
Aβ42 [5]; Aβ42 + compound 44 μM
  Congo red absorbance wavelength (red shift) with Aβ42: 510 nm
Aβ42 [6]
  morphology of Aβ42 aggregates by TEM: shorter, loose, and less Aβ42 fibrils along with small oligomers

## Tannic acid
Aβ42 [4]
  inhibition of Aβ42 aggregation (ThT fluorescence): 85%

## NCCCS(=O)(=O)O [homotaurine]
PC12 cells [3]; rat, 40 μM
  survival of PC12 cells against Aβ42 cytotoxicity (MTT): 58%
